One test deals with F1Fo-bound membranes. The test is described as follows: Control: protecting ligand without added NBD-Cl, ATPase activity. The class given is biochemical, Escherichia coli. As to conditions: MgADP up to 10 mM, Pi up to 50 mM.
The subject of test [1] is wild-type and mutant membrane-bound F1Fo ATP synthase. Type of test: biochemical. As to conditions: wild type and six mutants; 150 μM NBD-Cl 1 h, then 4 mM DTT 1 h.
Test [2] concerns the target αT349A mutant membrane-bound F1Fo ATP synthase (Escherichia coli, UniProt P0ABB0+P0ABB4, T349A/Y332W). Type of test: biochemical. As to conditions: sodium azide 30 min preincubation.
Test [3] addresses βR182A mutant membrane-bound F1Fo ATP synthase (Escherichia coli, UniProt P0ABB0+P0ABB4, R183A/Y332W). The class given is biochemical. As to conditions: sodium azide 30 min preincubation.
Test [4] concerns the target αT349D mutant membrane-bound F1Fo ATP synthase (Escherichia coli, UniProt P0ABB0+P0ABB4, T349D/Y332W). The class given is biochemical. As to conditions: sodium azide 30 min preincubation.
In test [5] the target is αT349Q mutant membrane-bound F1Fo ATP synthase (Escherichia coli, UniProt P0ABB0+P0ABB4, T349Q/Y332W). Type of test: biochemical. As to conditions: sodium azide 30 min preincubation.
Test [6] has as its target αT349R mutant membrane-bound F1Fo ATP synthase (Escherichia coli, UniProt P0ABB0+P0ABB4, T349R/Y332W). The class given is biochemical. As to conditions: sodium azide 30 min preincubation.
Test [7] concerns the target αT349R/βR182A double mutant membrane-bound F1Fo ATP synthase (Escherichia coli, UniProt P0ABB0+P0ABB4, R183A/T349R/Y332W). Type of test: biochemical. As to conditions: sodium azide 30 min preincubation.

This is an account of results in article PMC4255642 (Biochemistry, 2014).

As for `Nc1ncnc2c1ncn2[C@@H]1O[C@H](COP(=O)([O-])OP(=O)([O-])O)[C@@H](O)[C@H]1O.[Mg+2]` [MgADP], in the test with F1Fo-bound membranes, the “inhibitory effect of ligand alone on ATPase activity” value is recorded as “Neither MgADP (up to 10 mM) nor Pi (up to 50 mM) had any inhibitory effect alone”.

For `O[C@@H](CS)[C@@H](O)CS` (racemic) [DTT, dithiothreitol], the “reversal of NBD-Cl inactivation of ATPase activity by DTT” value in test [1] is given as “completely restored full activity in all cases”.

Turning to `O=P(O)(O)O` [Pi, inorganic phosphate], the “inhibitory effect of ligand alone on ATPase activity” value in the test with F1Fo-bound membranes is listed as “Neither MgADP (up to 10 mM) nor Pi (up to 50 mM) had any inhibitory effect alone”.

As for `[N-]=[N+]=[N-].[Na+]` [azide, sodium azide], the “residual ATPase activity with azide” value is reported as roughly 53% in test [2]; roughly 72% in test [3]; roughly 90% in test [4]; roughly 90% in test [5]; roughly 40% in test [6]; roughly 21% in test [7].
